# Reference: patent US8137705B2 (priority 2005, dated 2012)
# Legend:
# Assay type in all cases: cell-based
# [1] = test system: E. coli O157:H7; assay: E. coli O157:H7 counts in water containing rumen content or feces treated with chemicals or chemical combinations; conditions: 21° C.; for E. coli O157:H7 counts (log10 cfu/ml) at min 0: 0 min; for E. coli O157:H7 counts (log10 cfu/ml) at min 2: 2 min; for E. coli O157:H7 counts (log10 cfu/ml) at min 5: 5 min; for E. coli O157:H7 counts (log10 cfu/ml) at min 10: 10 min; for E. coli O157:H7 counts (log10 cfu/ml) at min 20: 20 min; for E. coli O157:H7 counts (log10 cfu/ml) at min 30: 30 min; for E. coli O157:H7 counts (log10 cfu/ml) at min 60: 60 min; for E. coli O157:H7 counts (log10 cfu/ml) at min 120: 120 min
# [2] = test system: E. coli O26:H11; assay: E. coli O26:H11 counts in water containing rumen content or feces treated with chemical combinations; conditions: 21° C.; for E. coli O26:H11 counts (log10 cfu/ml) at min: 0: 0 min; for E. coli O26:H11 counts (log10 cfu/ml) at min: 2: 2 min; for E. coli O26:H11 counts (log10 cfu/ml) at min: 5: 5 min; for E. coli O26:H11 counts (log10 cfu/ml) at min: 10: 10 min; for E. coli O26:H11 counts (log10 cfu/ml) at min: 20: 20 min; for E. coli O26:H11 counts (log10 cfu/ml) at min: 30: 30 min; for E. coli O26:H11 counts (log10 cfu/ml) at min: 60: 60 min; for E. coli O26:H11 counts (log10 cfu/ml) at min: 120: 120 min
# [3] = test system: E. coli O111:NM; assay: E. coli O111:NM counts in water containing rumen content or feces treated with chemical combinations; conditions: 21° C.; for E. coli O111:NM counts (log10 cfu/ml) at min 0: 0 min; for E. coli O111:NM counts (log10 cfu/ml) at min 2: 2 min; for E. coli O111:NM counts (log10 cfu/ml) at min 5: 5 min; for E. coli O111:NM counts (log10 cfu/ml) at min 10: 10 min; for E. coli O111:NM counts (log10 cfu/ml) at min 20: 20 min; for E. coli O111:NM counts (log10 cfu/ml) at min 30: 30 min; for E. coli O111:NM counts (log10 cfu/ml) at min 60: 60 min; for E. coli O111:NM counts (log10 cfu/ml) at min 120: 120 min
# [4] = water containing feces (20:1, v/w)
# [5] = water containing rumen content (10:1, v/w)
structure (smiles),measurement,setting,value
"O=C([O-])c1ccccc1.[Na+] [0.1% sodium benzoate, sodium benzoate]",E. coli O157:H7 counts (log10 cfu/ml) at min 0,[1]; [4],5.7 log10 cfu/ml
same,E. coli O157:H7 counts (log10 cfu/ml) at min 2,[1]; [4],5.6 log10 cfu/ml
same,E. coli O157:H7 counts (log10 cfu/ml) at min 5,[1]; [4],5.4 log10 cfu/ml
same,E. coli O157:H7 counts (log10 cfu/ml) at min 10,[1]; [4],5.6 log10 cfu/ml
same,E. coli O157:H7 counts (log10 cfu/ml) at min 20,[1]; [4],5.5 log10 cfu/ml
same,E. coli O157:H7 counts (log10 cfu/ml) at min 30,[1]; [4],5.4 log10 cfu/ml
same,E. coli O157:H7 counts (log10 cfu/ml) at min 60,[1]; [4],5.5 log10 cfu/ml
same,E. coli O157:H7 counts (log10 cfu/ml) at min 120,[1]; [4],5.6 log10 cfu/ml
same,E. coli O157:H7 counts (log10 cfu/ml) at min 0,[1]; [5],5.9 log10 cfu/ml
same,E. coli O157:H7 counts (log10 cfu/ml) at min 2,[1]; [5],6.0 log10 cfu/ml
same,E. coli O157:H7 counts (log10 cfu/ml) at min 5,[1]; [5],6.0 log10 cfu/ml
same,E. coli O157:H7 counts (log10 cfu/ml) at min 10,[1]; [5],5.9 log10 cfu/ml
same,E. coli O157:H7 counts (log10 cfu/ml) at min 20,[1]; [5],6.0 log10 cfu/ml
same,E. coli O157:H7 counts (log10 cfu/ml) at min 30,[1]; [5],5.9 log10 cfu/ml
same,E. coli O157:H7 counts (log10 cfu/ml) at min 60,[1]; [5],6.0 log10 cfu/ml
same,E. coli O157:H7 counts (log10 cfu/ml) at min 120,[1]; [5],6.1 log10 cfu/ml
same,E. coli O26:H11 counts (log10 cfu/ml) at min: 0,[2]; [4],5.5 log10 cfu/ml
same,E. coli O26:H11 counts (log10 cfu/ml) at min: 2,[2]; [4],5.4 log10 cfu/ml
same,E. coli O26:H11 counts (log10 cfu/ml) at min: 5,[2]; [4],5.5 log10 cfu/ml
same,E. coli O26:H11 counts (log10 cfu/ml) at min: 10,[2]; [4],5.4 log10 cfu/ml
same,E. coli O26:H11 counts (log10 cfu/ml) at min: 20,[2]; [4],5.5 log10 cfu/ml
same,E. coli O26:H11 counts (log10 cfu/ml) at min: 30,[2]; [4],5.4 log10 cfu/ml
same,E. coli O26:H11 counts (log10 cfu/ml) at min: 60,[2]; [4],5.5 log10 cfu/ml
same,E. coli O26:H11 counts (log10 cfu/ml) at min: 120,[2]; [4],5.4 log10 cfu/ml
same,E. coli O26:H11 counts (log10 cfu/ml) at min: 0,[2]; [5],5.6 log10 cfu/ml
same,E. coli O26:H11 counts (log10 cfu/ml) at min: 2,[2]; [5],5.5 log10 cfu/ml
same,E. coli O26:H11 counts (log10 cfu/ml) at min: 5,[2]; [5],5.4 log10 cfu/ml
same,E. coli O26:H11 counts (log10 cfu/ml) at min: 10,[2]; [5],5.5 log10 cfu/ml
same,E. coli O26:H11 counts (log10 cfu/ml) at min: 20,[2]; [5],5.5 log10 cfu/ml
same,E. coli O26:H11 counts (log10 cfu/ml) at min: 30,[2]; [5],5.5 log10 cfu/ml
same,E. coli O26:H11 counts (log10 cfu/ml) at min: 60,[2]; [5],5.4 log10 cfu/ml
same,E. coli O26:H11 counts (log10 cfu/ml) at min: 120,[2]; [5],5.5 log10 cfu/ml
same,E. coli O111:NM counts (log10 cfu/ml) at min 0,[3]; [4],5.6 log10 cfu/ml
same,E. coli O111:NM counts (log10 cfu/ml) at min 2,[3]; [4],5.6 log10 cfu/ml
same,E. coli O111:NM counts (log10 cfu/ml) at min 5,[3]; [4],5.6 log10 cfu/ml
same,E. coli O111:NM counts (log10 cfu/ml) at min 10,[3]; [4],5.7 log10 cfu/ml
same,E. coli O111:NM counts (log10 cfu/ml) at min 20,[3]; [4],5.6 log10 cfu/ml
same,E. coli O111:NM counts (log10 cfu/ml) at min 30,[3]; [4],5.5 log10 cfu/ml
same,E. coli O111:NM counts (log10 cfu/ml) at min 60,[3]; [4],5.5 log10 cfu/ml
same,E. coli O111:NM counts (log10 cfu/ml) at min 120,[3]; [4],5.6 log10 cfu/ml
same,E. coli O111:NM counts (log10 cfu/ml) at min 0,[3]; [5],5.6 log10 cfu/ml
same,E. coli O111:NM counts (log10 cfu/ml) at min 2,[3]; [5],5.6 log10 cfu/ml
same,E. coli O111:NM counts (log10 cfu/ml) at min 5,[3]; [5],5.5 log10 cfu/ml
same,E. coli O111:NM counts (log10 cfu/ml) at min 10,[3]; [5],5.6 log10 cfu/ml
same,E. coli O111:NM counts (log10 cfu/ml) at min 20,[3]; [5],5.6 log10 cfu/ml
same,E. coli O111:NM counts (log10 cfu/ml) at min 30,[3]; [5],5.5 log10 cfu/ml
same,E. coli O111:NM counts (log10 cfu/ml) at min 60,[3]; [5],5.4 log10 cfu/ml
same,E. coli O111:NM counts (log10 cfu/ml) at min 120,[3]; [5],5.5 log10 cfu/ml
